{"source": "ChEMBL document CHEMBL4725351", "about": "“Cyclic Derivative of Host-Defense Peptide IDR-1018 Improves Proteolytic Stability, Suppresses Inflammation, and Enhances In Vivo Activity” (J Med Chem, 2020)", "key": {"Staphylococcus aureus [1]": {"test_system": "Staphylococcus aureus", "experiment": "Antibacterial activity against methicillin-resistant Staphylococcus aureus SAP0017 measured after overnight incubation by microtitre plate based spectrophotometric method", "format": "functional"}, "Staphylococcus aureus [2]": {"test_system": "Staphylococcus aureus", "experiment": "Antibacterial activity against methicillin-resistant Staphylococcus aureus USA300 LAC measured after overnight incubation by microtitre plate based spectrophotometric method", "format": "functional"}, "Pseudomonas aeruginosa [3]": {"test_system": "Pseudomonas aeruginosa", "experiment": "Antibacterial activity against Pseudomonas aeruginosa PA14 measured after overnight incubation by microtitre plate based spectrophotometric method", "format": "functional"}, "Pseudomonas aeruginosa [4]": {"test_system": "Pseudomonas aeruginosa", "experiment": "Antibacterial activity against Pseudomonas aeruginosa PAO1 measured after overnight incubation by microtitre plate based spectrophotometric method", "format": "functional"}, "Escherichia coli [5]": {"test_system": "Escherichia coli", "experiment": "Antibacterial activity against Escherichia coli ATTC 489 measured after overnight incubation by microtitre plate based spectrophotometric method", "format": "functional"}, "Acinetobacter baumannii [6]": {"test_system": "Acinetobacter baumannii", "experiment": "Antibacterial activity against Acinetobacter baumannii 5015 measured after overnight incubation by microtitre plate based spectrophotometric method", "format": "functional"}, "Acinetobacter baumannii [7]": {"test_system": "Acinetobacter baumannii", "experiment": "Antibacterial activity against Acinetobacter baumannii 17918 measured after overnight incubation by microtitre plate based spectrophotometric method", "format": "functional"}, "Klebsiella pneumoniae [8]": {"test_system": "Klebsiella pneumoniae", "experiment": "Antibacterial activity against Klebsiella pneumoniae ATTC 13883 measured after overnight incubation by microtitre plate based spectrophotometric method", "format": "functional"}, "Staphylococcus aureus [9]": {"test_system": "Staphylococcus aureus", "experiment": "Antibiofilm activity against methicillin-resistant Staphylococcus aureus SAP0017 incubated for 24 hrs under shaking condition by turbidometric method", "format": "functional"}, "Staphylococcus aureus [10]": {"test_system": "Staphylococcus aureus", "experiment": "Antibiofilm activity against methicillin-resistant Staphylococcus aureus USA300 LAC incubated for 24 hrs under shaking condition by turbidometric method", "format": "functional"}, "Pseudomonas aeruginosa [11]": {"test_system": "Pseudomonas aeruginosa", "experiment": "Antibiofilm activity against Pseudomonas aeruginosa PA14 incubated for 24 hrs under shaking condition by turbidometric method", "format": "functional"}, "Pseudomonas aeruginosa [12]": {"test_system": "Pseudomonas aeruginosa", "experiment": "Antibiofilm activity against Pseudomonas aeruginosa PAO1 incubated for 24 hrs under shaking condition by turbidometric method", "format": "functional"}, "Escherichia coli [13]": {"test_system": "Escherichia coli", "experiment": "Antibiofilm activity against Escherichia coli ATTC 489 incubated for 24 hrs under shaking condition by turbidometric method", "format": "functional"}, "Acinetobacter baumannii [14]": {"test_system": "Acinetobacter baumannii", "experiment": "Antibiofilm activity against Acinetobacter baumannii 5015 incubated for 24 hrs under shaking condition by turbidometric method", "format": "functional"}, "Acinetobacter baumannii [15]": {"test_system": "Acinetobacter baumannii", "experiment": "Antibiofilm activity against Acinetobacter baumannii 17918 incubated for 24 hrs under shaking condition by turbidometric method", "format": "functional"}, "Klebsiella pneumoniae [16]": {"test_system": "Klebsiella pneumoniae", "experiment": "Antibiofilm activity against Klebsiella pneumoniae ATTC 13883 incubated for 24 hrs under shaking condition by turbidometric method", "format": "functional"}, "Trypsin [17]": {"biological_target": "T1, Trypsin (Homo sapiens, UniProt P07477+P07478+P35030)", "experiment": "Stability of the compound in pH 8.2 ammonium bicarbonate buffer assessed as trypsin (unknown origin)-mediated drug degradation at 20 ug/ml measured up to 120 mins by MALDI-TOF analysis", "format": "ADME, protein assay", "conditions": "pH 8.2, 2 h, at 20 µg/mL"}, "Trypsin [18]": {"biological_target": "T1, Trypsin", "experiment": "Stability of the compound in pH 8.2 ammonium bicarbonate buffer assessed as trypsin (unknown origin)-mediated drug degradation at 20 ug/ml measured up to 120 mins by RP-HPLC analysis", "format": "ADME, protein assay", "conditions": "pH 8.2, 2 h, at 20 µg/mL"}, "[19]": {"experiment": "Aggregation property of the compound in water at 1 mg/ml by turbidimetric method", "format": "physicochemical", "conditions": "buffer"}, "[20]": {"experiment": "Aggregation property of the compound in saline at 1 mg/ml by turbidimetric method", "format": "physicochemical", "conditions": "buffer"}, "[21]": {"experiment": "Aggregation property of the compound in 5% dextrose at 1 mg/ml by turbidimetric method", "format": "physicochemical"}, "[22]": {"experiment": "Aggregation property of the compound in RPMI medium with 1% FBS at 1 mg/ml by turbidimetric method", "format": "physicochemical"}, "[23]": {"experiment": "Aggregation property of the compound in sodium citrate solution at 10 mM by turbidimetric method", "format": "physicochemical", "conditions": "10000 µM"}, "[24]": {"experiment": "Aggregation property of the compound in sodium phosphate solution at 10 mM by turbidimetric method", "format": "physicochemical", "conditions": "10000 µM"}, "[25]": {"experiment": "Aggregation property of the compound in sodium nitrate solution at 10 mM by turbidimetric method", "format": "physicochemical", "conditions": "10000 µM"}, "[26]": {"experiment": "Aggregation of the compound in human PBMC assessed as amorphous morphology at 50 ug/ml measured after 4 hrs by microscopic analysis", "format": "ADME, tissue-based", "conditions": "dose 50 µg/ml"}, "[27]": {"experiment": "Cytotoxicity against human PBMC assessed as reduction in cell viability at 100 ug/ml measured after 24 hrs by LDH assay", "format": "tissue-based", "conditions": "dose 100 µg/ml"}, "PBMC [28]": {"test_system": "PBMC", "experiment": "Immunomodulatory activity in human PBMC assessed as increase in MCP1 production at 25 ug/ml measured after overnight incubation by ELISA", "format": "functional, tissue-based", "conditions": "dose 25.0 µg/ml"}, "PBMC [29]": {"test_system": "PBMC", "experiment": "Immunomodulatory activity in human PBMC assessed as change in TNFalpha production at 25 ug/ml measured after overnight incubation by ELISA", "format": "functional, tissue-based", "conditions": "dose 25.0 µg/ml"}, "PBMC [30]": {"test_system": "PBMC", "experiment": "Immunomodulatory activity in human PBMC assessed as increase in IL-1RA production at 25 ug/ml measured after overnight incubation by ELISA", "format": "functional, tissue-based", "conditions": "dose 25.0 µg/ml"}, "PBMC [31]": {"test_system": "PBMC", "experiment": "Immunomodulatory activity in human PBMC assessed as reduction in LPS-induced TNFalpha production at 25 ug/ml measured after overnight incubation by ELISA", "format": "functional, tissue-based", "conditions": "dose 25.0 µg/ml"}, "[32]": {"experiment": "Immunomodulatory activity in human PBMC assessed as increase in LPS-induced MCP1 production at 25 ug/ml measured after overnight incubation by ELISA", "format": "functional", "conditions": "dose 25 µg/ml"}, "PBMC [33]": {"test_system": "PBMC", "experiment": "Immunomodulatory activity in human PBMC assessed as reduction in LPS-induced IL1beta production at 25 ug/ml measured after overnight incubation by ELISA", "format": "functional, tissue-based", "conditions": "dose 25.0 µg/ml"}, "PBMC [34]": {"test_system": "PBMC", "experiment": "Immunomodulatory activity in human PBMC assessed as increase in LPS-induced IL10 production at 25 ug/ml measured after overnight incubation by ELISA", "format": "functional", "conditions": "dose 25.0 µg/ml"}, "PBMC [35]": {"test_system": "PBMC", "experiment": "Immunomodulatory activity in human PBMC assessed as increase in LPS-induced IL1RA production at 25 ug/ml measured after overnight incubation by ELISA", "format": "functional", "conditions": "dose 25.0 µg/ml"}, "[36]": {"experiment": "Toxicity in CD1 mouse assessed as precipitation under the skin at 10 mg/kg, sc measured after 16 hrs", "format": "organism-based", "conditions": "in vivo"}, "Staphylococcus aureus [37]": {"test_system": "Staphylococcus aureus", "experiment": "Antibacterial activity against Staphylococcus aureus USA300 LAC infected in CD1 mouse assessed as reduction in dermonecrosis at 7.5 mg/kg, sc administered at infection site measured after 3 days by caliper method relative to control", "format": "functional", "conditions": "time 3.0 day"}, "Staphylococcus aureus [38]": {"test_system": "Staphylococcus aureus", "experiment": "Antibacterial activity against Staphylococcus aureus USA300 LAC infected in CD1 mouse assessed as reduction in bacterial load at 7.5 mg/kg, sc administered at infection site measured after 3 days by colony counting method relative to control", "format": "functional", "conditions": "time 3.0 day"}}, "note": "Activity calls are given as the source filed them. No cut-off for these calls is given here. Where a SMILES comes first, the peptide text is derived from it. Bridges are numbered along the chain shown (N, C = ends).", "data": [{"smiles": "CC[C@H](C)[C@@H]1NC(=O)[C@H](CCCNC(=N)N)NC(=O)[C@H](C(C)C)NC(=O)[C@H](C)NC(=O)[C@H](C(C)C)NC(=O)[C@H]([C@@H](C)CC)NC(=O)[C@H](CC(C)C)NC(=O)[C@H](CCCNC(=N)N)NC(=O)[C@H](C(C)C)NC(=O)[C@@H](N)CSSC[C@@H](C(N)=O)NC(=O)[C@H](CCCNC(=N)N)NC(=O)[C@H](CCCNC(=N)N)NC(=O)[C@H](Cc2c[nH]c3ccccc23)NC1=O", "note": "(H-CVRLIVAVRIWRRC-NH2; disulfide 1-14)", "values": [{"measurement": "MIC", "setting": "Staphylococcus aureus [1]", "value": 28.7, "unit": "µM"}, {"measurement": "MIC", "setting": "Staphylococcus aureus [2]", "value": 28.7, "unit": "µM"}, {"measurement": "MIC", "setting": "Pseudomonas aeruginosa [3]", "value": 57.4, "unit": "µM"}, {"measurement": "MIC", "setting": "Pseudomonas aeruginosa [4]", "value": 57.4, "unit": "µM"}, {"measurement": "MIC", "setting": "Escherichia coli [5]", "value": 28.7, "unit": "µM"}, {"measurement": "MIC", "setting": "Acinetobacter baumannii [6]", "value": 57.4, "unit": "µM"}, {"measurement": "MIC", "setting": "Acinetobacter baumannii [7]", "value": 57.4, "unit": "µM"}, {"measurement": "MIC", "setting": "Klebsiella pneumoniae [8]", "value": 28.7, "unit": "µM"}, {"measurement": "MBEC", "setting": "Staphylococcus aureus [9]", "value": 18.3, "unit": "µM"}, {"measurement": "MBEC", "setting": "Staphylococcus aureus [10]", "value": 18.3, "unit": "µM"}, {"measurement": "MBEC", "setting": "Pseudomonas aeruginosa [11]", "value": 57.4, "unit": "µM"}, {"measurement": "MBEC", "setting": "Pseudomonas aeruginosa [12]", "value": 57.4, "unit": "µM"}, {"measurement": "MBEC", "setting": "Escherichia coli [13]", "value": 36.7, "unit": "µM"}, {"measurement": "MBEC", "setting": "Acinetobacter baumannii [14]", "value": 57.4, "unit": "µM"}, {"measurement": "MBEC", "setting": "Acinetobacter baumannii [15]", "value": 57.4, "unit": "µM"}, {"measurement": "MBEC", "setting": "Klebsiella pneumoniae [16]", "value": 28.7, "unit": "µM"}, {"measurement": "Stabilty", "setting": "Trypsin [17]", "value": "Stable"}, {"measurement": "Stabilty", "setting": "Trypsin [18]", "value": "Stable"}, {"measurement": "Activity", "setting": "[19]", "value": "Not Active"}, {"measurement": "Activity", "setting": "[20]", "value": "Not Active"}, {"measurement": "Activity", "setting": "[21]", "value": "Not Active"}, {"measurement": "Activity", "setting": "[22]", "value": "Active"}, {"measurement": "Activity", "setting": "[23]", "value": "Active"}, {"measurement": "Activity", "setting": "[24]", "value": "Active"}, {"measurement": "Activity", "setting": "[25]", "value": "Active"}, {"measurement": "Activity", "setting": "[26]", "value": "Not Active"}, {"measurement": "Activity", "setting": "[27]", "value": "Toxic"}, {"measurement": "Activity", "setting": "PBMC [28]", "value": "Active"}, {"measurement": "Activity", "setting": "PBMC [29]", "value": "inactive"}, {"measurement": "Activity", "setting": "PBMC [30]", "value": "Active"}, {"measurement": "Activity", "setting": "PBMC [31]", "value": "Active"}, {"measurement": "Activity", "setting": "[32]", "value": 35, "unit": "%"}, {"measurement": "Activity", "setting": "PBMC [33]", "value": "Active"}, {"measurement": "Activity", "setting": "PBMC [34]", "value": "Active"}, {"measurement": "Activity", "setting": "PBMC [35]", "value": "Active"}, {"measurement": "Activity", "setting": "[36]", "value": "Toxic"}, {"measurement": "Activity", "setting": "Staphylococcus aureus [37]", "value": "inactive"}, {"measurement": "Activity", "setting": "Staphylococcus aureus [38]", "value": "inactive"}]}]}
